Data taken from US20080160520A1, “Methods and Composition for Diagnosing and Treating Cancer” (priority 2006, published 2008).
Like-named read-outs stand apart in the source and are kept apart here. Where a SMILES comes first, the peptide text is derived from it. The star is where a group is joined. Cbz = O=C(OCc1ccccc1)*

Experiments:
Assay type in all cases: cell-based, S. cerevisiae
aneuploid yeast strains = conditions: for colony formation of aneuploids on medium containing the agent: compared with wild-type cells, FIG. 13B, E, I
Excerpt: To determine whether the synthesis of proteins from the additional chromosomes and their presence in the cell represents an increased burden on the cell's protein production machinery, the ability of aneuploid strains to grow under conditions that interfere with transcription, protein synthesis and protein folding was examined.

YAC-bearing strains = conditions: YACs with human or mouse DNA inserts; FIG. 5B
Procedure: Strains (from the top): A11311, A16850, A17392, A17393, A17394, A13628, A17396, A17397, A16851.
The phenotypes shared by aneuploids might result from the mere presence of additional DNA or from the RNAs and proteins synthesized from these chromosomes. Thus, the effects of seven yeast artificial chromosomes (YACs) containing human or mouse DNA inserts ranging from approximately 350 kb to 1.6 MB in size were tested (Table 3).
The other phenotypes observed in aneuploids were not shared by the YAC-bearing strains. […] Progression through other cell cycle stages was not affected either as judged by DNA content analysis (FIGS. 5, C and D).

[1] = test system: cdc28-4 and cdc23-1 mutants; experiment: Sensitivity of slow-proliferating cdc28-4 and cdc23-1 mutants to protein synthesis inhibitors; conditions: mutants severely impaired in cell division even at 23° C.; FIGS. 4C and D

## NC(=O)NO [hydroxyurea]
Aneuploid yeast strains
  colony formation of aneuploids on medium containing the agent: formed colonies as well as wild-type cells

## OO [hydrogen peroxide]
Aneuploid yeast strains; 1 mM, FIG. 13D, G
  proliferation of aneuploids in the presence of the agent: None of the aneuploids showed altered proliferation

## CC(C)C[C@@H](C=O)NC(=O)[C@H](CC(C)C)NC(=O)[C@H](CC(C)C)NC(=O)OCc1ccccc1 [MG 132] (Cbz-Leu-Leu-Leu-aldehyde)
Aneuploid yeast strains; disomes IV, XII, XIII, XIV and XVI, PDR5 deleted, concentrations that wild-type cells grow at, FIG. 4F
  proliferation of aneuploid strains (ability to form colonies on plates containing the drug): inhibited

## C[C@@H]1C[C@@H]([C@H](O)CC2CC(=O)NC(=O)C2)C(=O)[C@@H](C)C1 [cycloheximide]
Aneuploid yeast strains; 0.05 μg/ml, FIG. 4C
  proliferation of aneuploid strains: proliferation of most was impaired
Aneuploid yeast strains; 0.1 μg/ml and 0.2 μg/ml, FIG. 4C
  proliferation of all aneuploid strains: decreased proliferation
Aneuploid yeast strains; all aneuploid strains, FIG. 4C
  proliferation of all aneuploid strains: hampered
YAC-bearing strains
  sensitivity of YAC-bearing strains: did not exhibit increased sensitivity
[1]
  sensitivity of cdc28-4 and cdc23-1 mutants: did not exhibit increased sensitivity

## CCCCNC(=O)n1c(NC(=O)OC)nc2ccccc21 [benomyl]
Aneuploid yeast strains; 10 and 20 μg/ml, FIG. 13F
  sensitivity of aneuploid strains: About half of the aneuploid strains analyzed exhibited increased sensitivity

## O=c1cn[nH]c(=O)[nH]1 [6-Azauracil]
Aneuploid yeast strains
  colony formation of aneuploids on medium containing the agent: formed colonies as well as wild-type cells

## CC[C@H]1/C=C/C=C/C[C@@H](C)[C@H](O)[C@@](C)(O)C(=O)[C@@H](C)[C@H](O)[C@@H](C)C(=O)[C@@H](C)[C@H](O)[C@@H](C)/C=C/C(=O)O[C@@H]2[C@H](C)[C@H](CC1)O[C@]1(CC[C@H](C)[C@H](C[C@@H](C)O)O1)[C@H]2C [oligomycin]
Aneuploid yeast strains; increasing concentrations, FIG. 13I
  sensitivity of aneuploid strains: did not exhibit increased sensitivity

## O=C(O)C1CCN1 (stereo not drawn) [azetidine 2-carboxylic acid]
Aneuploid yeast strains
  colony formation of aneuploids on medium containing the agent: formed colonies as well as wild-type cells

## CC(=O)Nc1c2sscc-2n(C)c1=O [Thiolutin]
Aneuploid yeast strains; high concentration 20 μg/ml, all aneuploids except disomes I, X, XIV, FIG. 4B
  proliferation of aneuploids: inhibited
Aneuploid yeast strains; low concentrations 5 μg/ml to 15 μg/ml, FIG. 13H
  proliferation of aneuploids: proliferation of only a subset of strains was impaired
YAC-bearing strains
  sensitivity of YAC-bearing strains: did not exhibit increased sensitivity
